This passage reports IC50 results from patent US8481732B2 (Incyte Corporation, priority 2009, dated 2013).

T1 sequence (Q9H3N8 whole entry): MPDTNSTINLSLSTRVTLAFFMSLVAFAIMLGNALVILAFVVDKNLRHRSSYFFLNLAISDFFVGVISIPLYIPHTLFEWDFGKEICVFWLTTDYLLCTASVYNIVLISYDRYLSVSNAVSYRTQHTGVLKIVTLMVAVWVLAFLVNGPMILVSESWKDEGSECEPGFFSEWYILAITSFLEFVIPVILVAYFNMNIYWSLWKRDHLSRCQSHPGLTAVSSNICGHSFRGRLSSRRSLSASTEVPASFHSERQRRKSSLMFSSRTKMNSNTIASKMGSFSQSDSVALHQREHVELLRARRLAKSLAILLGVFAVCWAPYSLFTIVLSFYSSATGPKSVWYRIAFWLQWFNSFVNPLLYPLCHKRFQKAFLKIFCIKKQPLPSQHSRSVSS

The experiment addresses T1, histamine H4 receptor (Homo sapiens, UniProt Q9H3N8).
T1 construct: expressed in transfected cells; host or cells: HEK293SFM cells (membrane preparation)
In words: H4 Membrane Binding Assay (3H-Histamine displacement). As to conditions: membranes of recombinant HEK293SFM cells, 10 nM 3H-Histamine, 1.5 hr at room temperature. In short, it runs like this: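 Radioligand is [3H]-histamine; 1000× unlabeled ligand sets nonspecific binding. Receptor source: membrane pellets from HEK293SFM cells carrying human H4 or other histamine subtypes (human H1–H3, mouse H4), in 50 mM Tris-HCl pH 7.5. Filtration through PEI-treated GF/B filters, then scintillation counting.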
As to `COc1cccc(Oc2cccc(CNC(=O)c3ccc4c(N5CCN(C)CC5)nc(N)nc4c3)c2)c1C#N` [Example 190, 2-Amino-N-[3-(2-cyano-3-methoxyphenoxy)benzyl]-4-(4-methylpiperazin-1-yl)quinazoline-7-carboxamide], the half-maximal inhibitory concentration (IC50) stood at 11 nM.
The figure for `COC(=O)c1ccccc1Oc1cccc(CNC(=O)c2ccc3c(N4CCN(C)CC4)nc(N)nc3c2)c1` [Example 191, Methyl 2-{3-[({[2-amino-4-(4-methylpiperazin-1-yl)quinazolin-7-yl]carbonyl}amino)methyl]phenoxy}benzoate] is 20 nM.
As to `CN1CCN(c2nc(N)nc3cc(C(=O)NCc4cccc(OCc5cccc(C#N)c5)c4)ccc23)CC1` [Example 192, 2-amino-N-(3-(3-cyanobenzyloxy)benzyl)-4-(4-methylpiperazin-1-yl)quinazoline-7-carboxamide], the 50% inhibitory concentration (IC50) was determined as 6.3 nM.
In the case of `COC(=O)c1ccc(COc2cccc(CNC(=O)c3ccc4c(N5CCN(C)CC5)nc(N)nc4c3)c2)cc1` [Example 193, Methyl 4-({3-[({[2-amino-4-(4-methylpiperazin-1-yl)quinazolin-7-yl]carbonyl}amino)methyl]phenoxy}methyl)benzoate] it was 7.2 nM.
As to `COc1cc(COc2cccc(CNC(=O)c3ccc4c(N5CCN(C)CC5)nc(N)nc4c3)c2)cc(OC)c1` [Example 194, 2-Amino-N-{3-[(3,5-dimethoxybenzyl)oxy]benzyl}-4-(4-methylpiperazin-1-yl)quinazoline-7-carboxamide], the IC50 stood at 8.7 nM.
Consider `CN1CCN(c2nc(N)nc3cc(C(=O)NCc4cccc(OCc5cccc6nsnc56)c4)ccc23)CC1` [Example 195, 2-Amino-N-[3-(2,1,3-benzothiadiazol-4-ylmethoxy)benzyl]-4-(4-methylpiperazin-1-yl)quinazoline-7-carboxamide], for which the IC50 came out at 3.4 nM.
With `CC(Oc1cccc(CNC(=O)c2ccc3c(N4CCN(C)CC4)nc(N)nc3c2)c1)c1cccc(C(F)(F)F)c1` (stereo not shown) [Example 196, 2-Amino-4-(4-methylpiperazin-1-yl)-N-(3-{1-[3-(trifluoromethyl)phenyl]ethoxy}benzyl)quinazoline-7-carboxamide], the concentration for half-maximal inhibition (IC50) was 4.4 nM.
Take `CC(NC(=O)c1ccc2c(N3CCN(C)CC3)nc(N)nc2c1)c1cccc(Oc2ccc(Cl)cc2C#N)c1` (stereo not shown) [Example 197, 2-Amino-N-{1-[3-(4-chloro-2-cyanophenoxy)phenyl]ethyl}-4-(4-methylpiperazin-1-yl)quinazoline-7-carboxamide]: the IC50 is 7.1 nM.
In the case of `Cc1ccc(C#N)c(Oc2cccc(C(C)NC(=O)c3ccc4c(N5CCN(C)CC5)nc(N)nc4c3)c2)n1` (stereo not shown) [Example 198, 2-Amino-N-(1-{3-[(3-cyano-6-methylpyridin-2-yl)oxy]phenyl}ethyl)-4-(4-methylpiperazin-1-yl)quinazoline-7-carboxamide] it was 34 nM; in that of `CC(NC(=O)c1ccc2c(N3CCN(C)CC3)nc(N)nc2c1)c1cccc(Oc2ncccc2C#N)c1` (stereo not shown) [Example 199, 2-Amino-N-(1-{3-[(3-cyanopyridin-2-yl)oxy]phenyl}ethyl)-4-(4-methylpiperazin-1-yl)quinazoline-7-carboxamide], 63 nM; in that of `COC(=O)c1cccc(COc2cccc(C(C)NC(=O)c3ccc4c(N5CCN(C)CC5)nc(N)nc4c3)c2)c1` (stereo not shown) [Example 200, Methyl 3-({3-[1-({[2-amino-4-(4-methylpiperazin-1-yl)quinazolin-7-yl]carbonyl}amino)ethyl]phenoxy}methyl)benzoate], 7.1 nM.
As to `CC(NC(=O)c1ccc2c(N3CCN(C)CC3)nc(N)nc2c1)c1cccc(OCc2cccc(C#N)c2)c1` (stereo not shown) [Example 201, 2-Amino-N-(1-{3-[(3-cyanobenzyl)oxy]phenyl}ethyl)-4-(4-methylpiperazin-1-yl)quinazoline-7-carboxamide], the IC50 came to 14 nM.
In the case of `CN1CCN(c2nc(N)nc3cc(C(=O)NC4CCCc5ccc(OCc6cccc(C#N)c6)cc54)ccc23)CC1` (stereo not shown) [Example 202, 2-Amino-N-(7-(3-cyanobenzyloxy)-1,2,3,4-tetrahydronaphthalen-1-yl)-4-(4-methylpiperazin-1-yl)quinazoline-7-carboxamide] it was 9.2 nM; in that of `COc1cccc(COc2ccc3c(c2)C(NC(=O)c2ccc4c(N5CCN(C)CC5)nc(N)nc4c2)CCC3)c1` (stereo not shown) [Example 203, 2-Amino-N-(7-(3-methoxybenzyloxy)-1,2,3,4-tetrahydronaphthalen-1-yl)-4-(4-methylpiperazin-1-yl)quinazoline-7-carboxamide], 17 nM.
Turning to `COC(=O)c1cccc(COc2ccc3c(c2)C(NC(=O)c2ccc4c(N5CCN(C)CC5)nc(N)nc4c2)CCC3)c1` (stereo not shown) [Example 204, Methyl 3-((8-(2-amino-4-(4-methylpiperazin-1-yl)quinazoline-7-carboxamido)-5,6,7,8-tetrahydronaphthalen-2-yloxy)methyl)benzoate], the half-maximal inhibitory concentration (IC50) turned out to be 9.3 nM.
As to `CN1CCN(c2nc(N)nc3cc(C(=O)NC4CCCc5ccc(OCc6ccc(C#N)cc6)cc54)ccc23)CC1` (stereo not shown) [Example 205, 2-Amino-N-(7-(4-cyanobenzyloxy)-1,2,3,4-tetrahydronaphthalen-1-yl)-4-(4-methylpiperazin-1-yl)quinazoline-7-carboxamide], the 50% inhibitory concentration (IC50) turned out to be 11 nM.
For `COC(=O)c1ccc(COc2ccc3c(c2)C(NC(=O)c2ccc4c(N5CCN(C)CC5)nc(N)nc4c2)CCC3)cc1` (stereo not shown) [Example 206, Methyl 4-((8-(2-amino-4-(4-methylpiperazin-1-yl)quinazoline-7-carboxamido)-5,6,7,8-tetrahydronaphthalen-2-yloxy)methyl)benzoate], the IC50 is 24 nM.
Consider `CN1CCN(c2nc(N)nc3cc(C(=O)N4CCc5c(cccc5OCc5cccc(C#N)c5)C4)ccc23)CC1` [Example 207, 3((2-(2-Amino-4-(4-methylpiperazin-1-yl)quinazoline-7-carbonyl)-1,2,3,4-tetrahydroisoquinolin-5-yloxy)methyl)benzonitrile], for which the IC50 was 36 nM.
With `COc1cccc(COc2cccc3c2CCN(C(=O)c2ccc4c(N5CCN(C)CC5)nc(N)nc4c2)C3)c1` [Example 208, (2-Amino-4-(4-methylpiperazin-1-yl)quinazolin-7-yl)(5-(3-methoxybenzyloxy)-3,4-dihydroisoquinolin-2(1H)-yl)methanone], the concentration for half-maximal inhibition (IC50) was 24 nM.
Turning to `COC(=O)c1cccc(COc2cccc3c2CCN(C(=O)c2ccc4c(N5CCN(C)CC5)nc(N)nc4c2)C3)c1` [Example 209, Methyl 3-((2-(2-amino-4-(4-methylpiperazin-1-yl)quinazoline-7-carbonyl)-1,2,3,4-tetrahydroisoquinolin-5-yloxy)methyl)benzoate], the 50% inhibitory concentration (IC50) came out at 36 nM.
On to `CN1CCN(c2nc(N)nc3cc(C(=O)N4CCc5c(cccc5OCc5ccc(C#N)cc5)C4)ccc23)CC1` [Example 210, 4-((2-(2-Amino-4-(4-methylpiperazin-1-yl)quinazoline-7-carbonyl)-1,2,3,4-tetrahydroisoquinolin-5-yloxy)methyl)benzonitrile], for which the IC50 amounted to 41 nM.
Take `COC(=O)c1ccc(COc2cccc3c2CCN(C(=O)c2ccc4c(N5CCN(C)CC5)nc(N)nc4c2)C3)cc1` [Example 211, Methyl 4-((2-(2-amino-4-(4-methylpiperazin-1-yl)quinazoline-7-carbonyl)-1,2,3,4-tetrahydroisoquinolin-5-yloxy)methyl)benzoate]: the 50% inhibitory concentration (IC50) was found to be 63 nM.

As a reminder, the IC50 is the concentration at which inhibition is half-maximal.
